How the values were obtained:
Mouse T cells [1] = experiment: cell proliferation by dilution of CSFE proliferation dye; type: cell-based; details: hgp100 peptide or anti-CD3/CD28 stimulation, 4 days, 0.5 μM
Procedure: Mouse T cells were stimulated using either hgp100 peptide or anti-CD3/CD28 antibodies, and the numbers of cells were expanded for 4 days in vitro in the presence of 0.5 μM p38 inhibitor. Cell proliferation was measured.

Mouse T cells [2] = experiment: RNA extraction and qPCR gene expression; type: cell-based; details: 5 days, 0.5 μM, qPCR
Procedure: Mouse T cells were stimulated and expanded for 5 days in vitro in the presence of 0.5 μM p38 inhibitor. RNA extraction and qPCR analysis were performed to determine differences in gene expression.

Mouse T cells [3] = experiment: mouse T cells stimulated and expanded 5 days with Birb796: gamma H2AX, cell counts, CD44/CD62L; type: cell-based; details: mouse T cells expanded 5 days in vitro; with increases in the dosage of p38i
Procedure: Mouse T cells were stimulated and the numbers of cells were expanded for 5 days in vitro in the presence of the p38 inhibitor Birb796. The percentages of cells with high levels of gamma H2AX, the percentages of cell counts, and the expression of CD44 and CD62L were measured. As shown in FIGS. 4C-4F, with increases in the dosage of p38 inhibitor […]), the DNA damage in cells was reduced and the cell counts and percentage of CD62L+ cells were increased.

[4] = system: human healthy donor derived T cells and melanoma patient-derived T cells; experiment: human T cells expanded 20-25 days with p38i: CD8+CD62L+ cells; type: cell-based; details: 0.5 uM p38i, vs vehicle
Procedure: The numbers of human healthy donor derived T cells and melanoma patient-derived T cells were expanded for 20-25 days in presence of 0.5 uM […]. The percentage of CD8+CD62L+ cells was measured.

Human T cells = experiment: IFN-gamma production by human T cells expanded with p38i; type: cell-based; details: human T cells expanded 20-25 days
From the text: Human T cells were expanded for 20-25 days in the presence of […].

[5] = system: CD19 antigen expressing NALM6 cells; experiment: specific cytolysis by anti-CD19 CAR human T cells expanded with p38i; type: cell-based; details: anti-CD19 CAR T cells from 2 healthy donors, expanded 20-25 days, overnight coculture with NALM6
Procedure: Human T cells from 2 healthy donors were transduced with a retrovirus encoding an anti-CD19 CAR and the numbers of cells were expanded for 20-25 days in the presence of […]. Specific cytolysis was measured. […] T cells and NALM6 cells were cocultured overnight.

Mouse T cells [6] = experiment: cytokine production after brief anti-CD3/anti-CD28 stimulation; type: cell-based; details: 10 days, 0.5 μM
Procedure: Mouse T cells were stimulated and expanded for 10 days in vitro in the presence of 0.5 μM p38 inhibitor. Cells were briefly stimulated with anti-CD3/anti-CD28 in the presence of GOLGI-STOP protein transport inhibitor and GOLGI-PLUG protein transport inhibitor to determine the cytokine production ability of cells. As shown in FIGS. 10A-10C, IFN-gamma and IL-2 production increased following […] treatment. TNF alpha production decreased following […] treatment.

Mouse T cells [7] = experiment: metabolome analysis; type: cell-based; details: 5 days, 0.5 μM, vs vehicle
Procedure: Mouse T cells were stimulated and the numbers of cells were expanded for 5 days in vitro in the presence of 0.5 μM p38 inhibitor. […] FIG. 7B is a schematic illustrating glycolysis and the citric acid cycle.

Subcutaneous tumor = experiment: adoptive cell transfer of Pmel-1 T cells expanded ex vivo with p38 inhibitor into tumor-bearing mice; type: in vivo; details: mice receiving Pmel-1 T cells expanded ex vivo 10 days with p38 inhibitor
Procedure: Subcutaneous tumor growth was measured in mice receiving adoptive cell transfer of Pmel-1 T cells which were expanded ex vivo for 10 days in the presence of p38 inhibitor. Tumor area (FIG. 10G) and overall survival (FIG. 10H) are shown. Significance for tumor growth kinetics were calculated by Wilcoxon rank-sum test. Survival significance was assessed by a log-rank Mantel-Cox test (n=5 mice per treatment group).

Mouse T cells [8] = experiment: SEAHORSE analysis of respiratory capacity; type: cell-based; details: 5 days, 0.5 μM
Procedure: Mouse T cells were stimulated and expanded for 5 days in vitro in the presence of 0.5 μM p38 inhibitor. SEAHORSE analysis was performed to determine spare respiratory capacity of cells.

Mouse T cells [9] = experiment: apoptosis during expansion by Annexin; type: cell-based; details: 4 days, 0.5 μM
Procedure: Mouse T cells were stimulated and the numbers of cells were expanded for 4 days in vitro in the presence of 0.5 μM p38 inhibitor. The levels of cells which underwent apoptosis were measured.

Mouse T cells [10] = experiment: intracellular staining and FACS of phosphorylation of Akt and its substrates; type: cell-based; details: 5 days, 0.5 μM
Procedure: Mouse T cells were stimulated and the numbers of cells were expanded for 5 days in vitro in presence of 0.5 μM p38 inhibitor. Intracellular staining and FACS analysis was performed to measure phosphorylation of Akt and its substrates in T cells.

Mouse T cells [11] = experiment: cellular and mitochondrial ROS by FACS; type: cell-based; details: 10 days, 0.5 μM
Procedure: Mouse T cells were stimulated and expanded for 10 days in vitro in the presence of 0.5 μM p38 inhibitor. Cellular and mitochondrial ROS levels were measured using FACS analysis.

Q: With Cc1ccc(-n2nc(C(C)(C)C)cc2NC(=O)Nc2ccc(OCCN3CCOCC3)c3ccccc23)cc1 [BIRB 796, doramapimod] as the molecule, how does the “cell proliferation (dilution of CSFE proliferation dye)” value (Mouse T cells [1]) read?
A: did not affect cell proliferation

Q: And the “mRNA expression of Slc2a1” value (Mouse T cells [2])?
A: reduced

Q: And the “mRNA expression of catalase” value (Mouse T cells [2])?
A: reduced

Q: What about the “DNA damage in cells (percentage of cells with high levels of gamma H2AX)” value (Mouse T cells [3]) of the same molecule?
A: reduced

Q: And the cell counts (Mouse T cells [3])?
A: increased

Q: And the “percentage of CD62L+ cells” value (Mouse T cells [3])?
A: increased

Q: What about the “percentage of CD8+CD62L+ cells” value ([4]; healthy donor T cells) of the same molecule?
A: increased

Q: What about the “percentage of CD8+CD62L+ cells” value ([4]; melanoma patient T cells) of the same molecule?
A: increased

Q: And the “ability to produce the effector cytokine IFN-gamma” value (Human T cells)?
A: enhanced ability

Q: What about the specific cytolysis [5] of the same molecule?
A: lysed in higher numbers

Q: What about the IFN-gamma production (Mouse T cells [6]) of the same molecule?
A: increased

Q: And the IL-2 production (Mouse T cells [6])?
A: increased

Q: And the TNF alpha production (Mouse T cells [6])?
A: decreased

Q: And the alpha-ketoglutarate production (Mouse T cells [7])?
A: reduced

Q: And the glucose production (Mouse T cells [7])?
A: reduced

Q: And the lactate production (Mouse T cells [7])?
A: reduced

Q: What about the “production of 9-HODE/13-HODE” value (Mouse T cells [7]) of the same molecule?
A: reduced

Q: And the “production of linoleate (18:2n6)” value (Mouse T cells [7])?
A: reduced

Q: What about the “production of oxidized GSSG” value (Mouse T cells [7]) of the same molecule?
A: reduced

Q: What about the succinate production (Mouse T cells [7]) of the same molecule?
A: reduced

Q: And the overall survival (Subcutaneous tumor)?
A: promote survival

Q: And the tumor area (Subcutaneous tumor)?
A: enhanced the ability of the transferred cells to reduce tumor area

Q: And the total oxygen consumption (Mouse T cells [8])?
A: increased

Q: And the “cell death during expansion (apoptotic cell marker Annexin)” value (Mouse T cells [9])?
A: reduced cell death

Q: And the “phosphorylation of Akt and its substrates” value (Mouse T cells [10])?
A: preserved memory-like characteristics of T cells independent of the Akt pathway

Q: What about the “mitochondrial ROS” value (Mouse T cells [11]) of the same molecule?
A: reduced

Q: What about the “total ROS” value (Mouse T cells [11]) of the same molecule?
A: reduced

Reference: patent publication US20200316122A1, “METHODS OF PRODUCING T CELL POPULATIONS USING P38 MAPK INHIBITORS” (The United States of America,as represented by the …, priority 2017, published 2020)
